Like-named read-outs stand apart in the source and are kept apart here. Each block holds one molecule with its values, some of them ahead of it.
Experiments:
[1] = biological target: T1, human histamine H4 receptor (Homo sapiens, UniProt Q9H3N8); experiment: Binding assay on recombinant human histamine H4 receptor (3H-histamine displacement)
T1 construct: expressed in transfected cells; host or cells: SK-N-MC cells or COS7 cells, transiently transfected; membrane preparation
Experimental: Binding Assay on Recombinant Human Histamine H4 Receptor
SK-N-MC cells or COS7 cells were transiently transfected with pH4R and grown in 150 cm^2 tissue culture dishes. Cells were washed with saline solution, scraped with a cell scraper and collected by centrifugation (1000 rpm, 5 min). Cell membranes were prepared by homogenization of the cell pellet in 20 mM Tris-HCl with a polytron tissue homogenizer for 10 s at high speed. Homogenate was centrifuged at 1000 rpm for 5 min at 4° C. The supernatant was then collected and centrifuged at 20,000× g for 25 min at 4° C. The final pellet was resuspended in 50 mM Tris-HCl. Cell membranes were incubated with ^3H-histamine (5-70 nM) in the presence or absence of excess histamine (10000 nM). Incubation occurred at room temperature for 45 min. Membranes were harvested by rapid filtration over Whatman GF/C filters and washed 4 times with ice-cold 50 mM Tris HCl. Filters were then dried, mixed with scintillant and counted for radioactivity. SK-N-MC or COS7 cells expressing human histamine H4 receptor were used to measure the affinity of binding of other compounds and their ability to displace ^3H-ligand binding by incubating the above-described reaction in the presence of various concentrations of inhibitor or compound to be tested.

Mast cells = experiment: Mast cell chemotaxis assay (histamine-induced, transwell); type: cell-based; conditions: 10 μM histamine, 3 h at 37° C.
Experimental: Mast Cell Chemotaxis Assay
In addition, it is known that mast cell numbers increase in a number of inflammatory conditions. Some of this is due to chemotaxis of mast cells to the sites of inflammation. This chemotaxis to specific agents can be mimicked in vitro. Transwells (Costar, Cambridge, Mass.) of a pore size 8 μm were coated with 100 μL of 100 ng/mL human fibronectin (Sigma) for 2 h at room temperature. After removal of the fibronectin, 600 μL of RPMI with 5% BSA, in the presence of 10 μM histamine, was added to the bottom chamber. To test the various histamine receptor (HR) antagonists, 10 μM and/or 1 μM solutions of the test compounds were added to the top and bottom chambers. Mast cells (2×10^5/well) were added to the top chamber. The plates were incubated for 3 h at 37° C. Transwells were removed and the cells in the bottom chamber were counted for sixty seconds using a flow cytometer.

human eosinophils [2] = experiment: Inhibition of eosinophil shape change (gated autofluorescence forward scatter assay); conditions: for effect on histamine-induced shape change: antagonist, human eosinophils; for Fold Change (eosinophil shape change): 10 μM antagonist
human eosinophils [3] = conditions: cited from earlier work
[4] = Table 1, competition with 3H-histamine, Cheng-Prusoff, KD 5 nM, ligand 5 nM, read-out: Ki

Ki [1, 4]: 743 nM
Molecule: 3-(3-Methyl-piperazin-1-yl)-6-trifluoromethyl-1H-quinoxalin-2-one; and 3-(3-Methyl-piperazin-1-yl)-7-trifluoromethyl-1H-qui noxalin-2-one [Example 28]

Ki [1, 4]: 11 nM
Molecule: 3-(4-Methyl-piperazin-1-yl)-6-trifluoromethyl-1H-qui noxalin-2-one; and 3-(4-Methyl-piperazin-1-yl)-7-trifluoromethyl-1H-quinoxalin-2-one [Example 11]

Ki [1, 4]: 467 nM
Molecule: 3-piperazin-1-yl-6-trifluoromethyl-1H-quinoxalin-2-one; and 3-piperazin-1-yl-7-trifluoromethyl-1H-quinoxalin-2-one [Example 24]

Molecule: 6-Chloro-3-(3-methyl-piperazin-1-yl)-1H-quinoxalin-2-one; and 7-Chloro-3-(3-methyl-piperazin-1-yl)-1H-quinoxalin-2-one [Example 27]
Ki ([1]; read-out: Ki): 467 nM

Molecule: 6-Chloro-3-(4-methyl-piperazin-1-yl)-1H-quinoxalin-2-one; and 7-Chloro-3-(4-methyl-piperazin-1-yl)-1H-quinoxalin-2-one [Example 8]
Ki ([1]; read-out: Ki): 21 nM

Ki [1, 4]: 12 nM
Ki ([1]; repeated in the mast cell chemotaxis table, read-out: Binding Assay Ki): 12 nM
Molecule: 6-Chloro-7-fluoro-3-(4-methyl-piperazin-1-yl)-1H-quinoxalin-2-one; and 7-Chloro-6-fluoro-3-(4-methyl-piperazin-1-yl)-1H-quinoxalin-2-one [Example 25]
% Inh (Mast cells; HR antagonist 1 μM): 81%
% Inh (Mast cells; HR antagonist 10 μM): 79%

Molecule: 7-Chloro-3-piperazin-1-yl-1H-quinoxalin-2-one; and 6-Chloro-3-piperazin-1-yl-1H-quinoxalin-2-one [Example 26]
Ki ([1]; read-out: Ki): 152 nM

Ki [1, 4]: 112 nM
Molecule: 7-Chloro-6-methyl-3-(4-methyl-piperazin-1-yl)-1H-quinoxalin-2-one; and 6-Chloro-7-methyl-3-(4-methyl-piperazin-1-yl)-1H-quinoxalin-2-one [Example 18]

IC50 (human eosinophils [2]; Homo sapiens, Eosinophil, read-out: IC50, inhibition of histamine-induced eosinophil shape change): 270 nM
Molecule: CN1CCN(C(=O)c2cc3cc(Cl)ccc3[nH]2)CC1 [(5-chloro-1H-indol-2-yl)-(4-methyl-piperazin-1-yl)-methanone]

Molecule: Cc1cccc2nc(N3CCN(C)CC3)c(=O)[nH]c12 [Example 1, 8-Methyl-3-(4-methyl-piperazin-1-yl)-1H-quinoxalin-2-one]
Ki ([1]; read-out: Ki): 6 nM
% Inh (Mast cells; HR antagonist 1 μM): 76%

Molecule: Cc1cccc2nc(N3CCNCC3)c(=O)[nH]c12 [Example 2, 8-Methyl-3-piperazin-1-yl-1H-quinoxalin-2-one]
Ki ([1]; read-out: Ki): 16 nM
% Inh (Mast cells; HR antagonist 1 μM): 50%

Ki [1, 4]: 640 nM
Molecule: O=c1[nH]c2c([N+](=O)[O-])cccc2nc1N1CCNCC1 [Example 3, 8-Nitro-3-piperazin-1-yl-1H-quinoxalin-2-one]

Molecule: O=c1[nH]c2c(F)c(F)ccc2nc1N1CCNCC1 [Example 4, 7,8-Difluoro-3-piperazin-1-yl-1H-quinoxalin-2-one]
Ki [1, 4]: 430 nM

Molecule: Cc1cccc2nc(N3CCNC(C)C3)c(=O)[nH]c12 (stereo not drawn) [Example 5, 8-Methyl-3-(3-methyl-piperazin-1-yl)-1H-quinoxalin-2-one]
Ki ([1]; read-out: Ki): 40 nM

Molecule: CC1CN(c2nc3ccccc3[nH]c2=O)CCN1 (stereo not drawn) [Example 6, 3-(3-Methyl-piperazin-1-yl)-1H-quinoxalin-2-one]
Ki [1, 4]: 681 nM

Ki [1, 4]: 852 nM
Molecule: Cc1cccc2nc(N3CCN(CCO)CC3)c(=O)[nH]c12 [Example 7, 3-[4-(2-Hydroxy-ethyl)-piperazin-1-yl]-8-methyl-1H-quinoxalin-2-one]

Molecule: CN1CCN(c2nc3cc(Cl)ccc3[nH]c2=O)CC1 [Example 9, 6-Chloro-3-(4-methyl-piperazin-1-yl)-1H-quinoxalin-2-one]
Ki ([1]; read-out: Ki): 84 nM

Molecule: CN1CCN(c2nc3ccc(Cl)cc3[nH]c2=O)CC1 [Example 10, 7-Chloro-3-(4-methyl-piperazin-1-yl)-1H-quinoxalin-2-one]
Ki ([1]; read-out: Ki): 31 nM

Ki [1, 4]: 24 nM
Molecule: CN1CCN(c2nc3cc(C(F)(F)F)ccc3[nH]c2=O)CC1 [Example 12, 3-(4-Methyl-piperazin-1-yl)-6-trifluoromethyl-1H-quinoxalin-2-one]
% Inh (Mast cells; HR antagonist 1 μM): 99%

Ki [1, 4]: 19 nM
Molecule: CN1CCN(c2nc3ccc(C(F)(F)F)cc3[nH]c2=O)CC1 [Example 13, 3-(4-Methyl-piperazin-1-yl)-7-trifluoromethyl-1H-quinoxalin-2-one]

Ki [1, 4]: 32 nM
Molecule: CN1CCN(c2nc3cc(Cl)c(Cl)cc3[nH]c2=O)CC1 [Example 14, 6,7-Dichloro-3-(4-methyl-piperazin-1-yl)-1H-quinoxalin-2-one]
% Inh (Mast cells; HR antagonist 1 μM): 71%
% Inh (Mast cells; HR antagonist 10 μM): 80%

Molecule: O=c1[nH]c2cc(Cl)c(Cl)cc2nc1N1CCNCC1 [Example 15, 6,7-Dichloro-3-piperazin-1-yl-1H-quinoxalin-2-one]
Ki ([1]; read-out: Ki): 56 nM

Ki [1, 4]: 1610 nM
Molecule: CN1CCCN(c2nc3cc(Cl)c(Cl)cc3[nH]c2=O)CC1 [Example 16, 6,7-Dichloro-3-(4-methyl-[1,4]diazepan-1-yl)-1H-quinoxalin-2-one]

Ki [1, 4]: 74 nM
Molecule: CN1CCN(c2nc3cc(F)c(F)cc3[nH]c2=O)CC1 [Example 17, 6,7-Difluoro-3-(4-methyl-piperazin-1-yl)-1H-quinoxalin-2-one]

Ki [1, 4]: 93 nM
Molecule: Cc1cc2nc(N3CCN(C)CC3)c(=O)[nH]c2cc1Cl [Example 19, 7-Chloro-6-methyl-3-(4-methyl-piperazin-1-yl)-1H-quinoxalin-2-one]

Ki [1, 4]: 83 nM
Molecule: Cc1cc2[nH]c(=O)c(N3CCN(C)CC3)nc2cc1Cl [Example 20, 6-Chloro-7-methyl-3-(4-methyl-piperazin-1-yl)-1H-quinoxalin-2-one]

Molecule: CN1CCN(c2nc3cc(F)ccc3[nH]c2=O)CC1 [Example 21, 6-Fluoro-3-(4-methyl-piperazin-1-yl)-1H-quinoxalin-2-one]
Ki ([1]; read-out: Ki): 39 nM

Ki [1, 4]: 30 nM
Molecule: CN1CCN(c2nc3ccc(F)c(F)c3[nH]c2=O)CC1 [Example 22, 7,8-Difluoro-3-(4-methyl-piperazin-1-yl)-1H-quinoxalin-2-one]

Ki [1, 4]: 166 nM
Molecule: CN1CCN(c2nc3cc(C(F)(F)F)cc(Cl)c3[nH]c2=O)CC1 [Example 23, 8-Chloro-3-(4-methyl-piperazin-1-yl)-6-trifluoromethyl-1H-quinoxalin-2-one]

Molecule: C[C@@H](N)Cc1c[nH]cn1 [R-α-methylhistamine]
activation of calcium mobilization (human eosinophils [3]): activate calcium mobilization
potency relative to histamine in calcium mobilization (human eosinophils [3]): significantly less potent than histamine

Molecule: CN(C)CCOC(c1ccccc1)c1ccccc1 [diphenhydramine]
effect on histamine-induced shape change (human eosinophils [2]): did not alter
Fold Change (eosinophil shape change) (human eosinophils [2]; histamine 0 μM): 1.00
Fold Change (eosinophil shape change) (human eosinophils [2]; histamine 0.01 μM): 1.03
Fold Change (eosinophil shape change) (human eosinophils [2]; histamine 0.1 μM): 1.18
Fold Change (eosinophil shape change) (human eosinophils [2]; histamine 1 μM): 1.50
Fold Change (eosinophil shape change) (human eosinophils [2]; histamine 10 μM): 1.63

Molecule: NCCc1c[nH]cn1 [histamine]
activation of calcium mobilization (human eosinophils [3]): activate calcium mobilization
shape change in eosinophils (agonist effect) (human eosinophils [2]; histamine alone, 0.01-10 μM): induces a dose-dependent shape change

Molecule: CNC(=C[N+](=O)[O-])NCCSCc1ccc(CN(C)C)o1 [ranatidine]
effect on histamine-induced shape change (human eosinophils [2]): did not alter
Fold Change (eosinophil shape change) (human eosinophils [2]; histamine 0 μM): 1.00
Fold Change (eosinophil shape change) (human eosinophils [2]; histamine 0.01 μM): 1.04
Fold Change (eosinophil shape change) (human eosinophils [2]; histamine 0.1 μM): 1.21
Fold Change (eosinophil shape change) (human eosinophils [2]; histamine 1 μM): 1.49
Fold Change (eosinophil shape change) (human eosinophils [2]; histamine 10 μM): 1.64

Molecule: S=C(NC1CCCCC1)N1CCC(c2cnc[nH]2)CC1 [thioperamide]
blockade of calcium mobilization responses (human eosinophils [3]; responses to histamine and R-α-methylhistamine): blocked
